Data reported in patent US11339130B1 (Blade Therapeutics, Inc., priority 2016, dated 2022).
Like-named read-outs stand apart in the source and are kept apart here.

Tests used:
[1] = target: T1, Human Calpain 1/NS1 (Homo sapiens, UniProt P07384); experiment: Calpain inhibition continuous fluorescence (FRET) assay, Human Calpain 1/NS1; format: biochemical; conditions: read-out: Human Calpain 1/NS1 IC50
T1 sequence (P07384 1-714): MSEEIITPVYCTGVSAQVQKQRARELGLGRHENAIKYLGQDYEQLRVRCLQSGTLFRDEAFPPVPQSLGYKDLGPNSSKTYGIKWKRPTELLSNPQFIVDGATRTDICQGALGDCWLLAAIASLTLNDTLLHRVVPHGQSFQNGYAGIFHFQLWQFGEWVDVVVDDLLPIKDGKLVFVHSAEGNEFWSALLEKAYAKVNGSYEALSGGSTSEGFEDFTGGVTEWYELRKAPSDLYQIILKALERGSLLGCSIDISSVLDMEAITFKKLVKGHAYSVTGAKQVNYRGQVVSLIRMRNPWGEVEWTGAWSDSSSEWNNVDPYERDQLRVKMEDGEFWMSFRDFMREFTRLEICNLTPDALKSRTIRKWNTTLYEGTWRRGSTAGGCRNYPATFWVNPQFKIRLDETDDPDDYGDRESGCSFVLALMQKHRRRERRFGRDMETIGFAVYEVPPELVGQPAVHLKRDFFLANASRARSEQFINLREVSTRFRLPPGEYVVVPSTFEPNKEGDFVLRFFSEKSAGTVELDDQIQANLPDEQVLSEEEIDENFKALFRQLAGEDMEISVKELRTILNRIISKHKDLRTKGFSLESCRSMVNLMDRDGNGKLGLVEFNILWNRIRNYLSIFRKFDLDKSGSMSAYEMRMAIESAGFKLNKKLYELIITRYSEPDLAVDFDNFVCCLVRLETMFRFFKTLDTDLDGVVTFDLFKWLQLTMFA
T1 sequence (P04632 1-268 partner): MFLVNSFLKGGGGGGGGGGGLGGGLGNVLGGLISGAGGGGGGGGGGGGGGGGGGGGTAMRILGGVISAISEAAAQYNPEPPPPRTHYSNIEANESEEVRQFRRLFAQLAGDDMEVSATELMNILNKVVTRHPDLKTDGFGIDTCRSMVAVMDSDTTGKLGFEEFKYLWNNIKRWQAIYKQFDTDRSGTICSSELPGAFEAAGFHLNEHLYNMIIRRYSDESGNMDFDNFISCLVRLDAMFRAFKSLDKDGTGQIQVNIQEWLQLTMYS
Outline: (§1)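 Inhibitors were preincubated with calpain in 50 mM Tris pH 7.5, 100 mM NaCl, 1 mM DTT at 25C. Reactions were started with 5-FAM/QXL 520 FRET peptide substrate plus CaCl2 and read at 490/520 nm for 10 min. IC50s came from 4-parameter fits of slope rates (1-5 min).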

[2] = target: T2, Human Calpain 2/NS1 (Homo sapiens, UniProt P17655); experiment: Calpain inhibition continuous fluorescence (FRET) assay, Human Calpain 2/NS1; format: biochemical; conditions: read-out: Human Calpain 2/NS1 IC50
T2 sequence (P17655 1-700): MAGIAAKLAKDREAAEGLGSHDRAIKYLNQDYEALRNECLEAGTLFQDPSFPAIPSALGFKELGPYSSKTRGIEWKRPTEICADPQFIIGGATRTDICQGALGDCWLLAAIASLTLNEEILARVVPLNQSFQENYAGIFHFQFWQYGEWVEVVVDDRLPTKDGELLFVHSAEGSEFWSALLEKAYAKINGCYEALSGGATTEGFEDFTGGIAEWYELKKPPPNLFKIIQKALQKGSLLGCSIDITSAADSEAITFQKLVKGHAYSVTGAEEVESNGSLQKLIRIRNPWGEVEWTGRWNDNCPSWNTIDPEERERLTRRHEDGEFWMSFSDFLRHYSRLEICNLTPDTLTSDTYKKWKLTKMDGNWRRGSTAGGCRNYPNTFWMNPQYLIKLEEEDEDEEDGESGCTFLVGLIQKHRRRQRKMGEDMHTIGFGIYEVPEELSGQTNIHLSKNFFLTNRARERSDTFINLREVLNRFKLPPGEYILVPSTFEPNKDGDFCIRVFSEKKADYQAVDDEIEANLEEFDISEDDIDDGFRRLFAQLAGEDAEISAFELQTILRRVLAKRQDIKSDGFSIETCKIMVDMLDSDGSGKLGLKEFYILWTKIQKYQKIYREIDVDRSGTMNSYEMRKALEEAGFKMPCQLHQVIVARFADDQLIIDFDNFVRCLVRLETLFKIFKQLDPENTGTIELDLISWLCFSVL
T2 sequence (P04632 1-268 partner): T1 sequence (P04632 1-268 partner)
Outline: as §1

[3] = tested on: Calpain activity in SH-SY5Y cells (SBDP-150); experiment: SH-SY5Y Spectrin western blot assay (SBDP-150 breakdown product, A23187-induced); format: cell-based; conditions: Homo sapiens, SH-SY5Y cells, read-out: SH-SY5Y Spectrin IC50
[4] = tested on: Calpain activity in SH-SY5Y cells; experiment: SH-SY5Y + AMC fluorescence assay (Suc-LLVY-AMC substrate); format: cell-based; conditions: read-out: SH-SY5Y + AMC IC50
[5] = Column D, A23187-induced SBDP-150
[6] = A23187-induced SBDP-150, western blot

| Structure (SMILES) | IC50 ([1]; Column A) [µM] | IC50 ([2]; Column B) [µM] | IC50 [3, 5] [µM] | IC50 ([4]; Column E) [µM] | IC50 [1] [µM] | IC50 [2] [µM] | IC50 [3, 6] [µM] | IC50 [4] [µM] |
| --- | --- | --- | --- | --- | --- | --- | --- | --- |
| NC(=O)C(=O)[C@H](Cc1ccccc1)NC(=O)c1cnoc1-c1ccccc1 [Compound 60, (S)—N-(4-amino-3,4-dioxo-1-phenylbutan-2-yl)-5-phenylisoxazole-4-carboxamide] | < 3 | < 3 | < 10 | < 10 | – | – | – | – |
| NC(=O)C(=O)[C@H](Cc1ccccc1)NC(=O)c1cn(C2CC2)nc1-c1ccccc1 [Compound 250, (S)—N-(4-amino-3,4-dioxo-1-phenylbutan-2-yl)-1-cyclopropyl-3-phenyl-1H-pyrazole-4-carboxamide] | < 3 | < 3 | 10 to 25 | 10 to 25 | – | – | – | – |
| NC(=O)C(=O)C(Cc1ccccc1)NC(=O)c1cn(C(F)F)nc1-c1ccccc1 (stereo not drawn) [Compound 403, N-(4-amino-3,4-dioxo-1-phenylbutan-2-yl)-1-(difluoromethyl)-3-phenyl-1H-pyrazole-4-carboxamide] | – | – | – | – | < 3 | < 3 | < 10 | < 10 |
| NC(=O)C(=O)C(Cc1ccccc1)NC(=O)c1cn(C2CC2)nc1-c1ccccc1 (stereo not drawn) [Compound 406, N-(4-amino-3,4-dioxo-1-phenylbutan-2-yl)-1-cyclopropyl-3-phenyl-1H-pyrazole-4-carboxamide] | – | – | – | – | < 3 | < 3 | 10 to 25 | < 10 |
| Cn1cc(C(=O)NC(Cc2ccccc2)C(=O)C(N)=O)c(-c2ccccc2F)n1 (stereo not drawn) [Compound 484, N-(4-amino-3,4-dioxo-1-phenylbutan-2-yl)-3-(2-fluorophenyl)-1-methyl-1H-pyrazole-4-carboxamide] | – | – | – | – | < 3 | < 3 | 10 to 25 | < 10 |
| Cl.Cn1cc(C(=O)NC(Cc2ccccc2)C(=O)C(N)=O)c(-c2cccc(F)c2)n1 (stereo not drawn) [Compound 485, N-(4-amino-3,4-dioxo-1-phenylbutan-2-yl)-3-(3-fluorophenyl)-1-methyl-1H-pyrazole-4-carboxamide hydrochloride] | – | – | – | – | < 3 | < 3 | 10 to 25 | 10 to 25 |
| Cc1cc(C(=O)NC(Cc2ccccc2)C(=O)C(N)=O)n(-c2ccccn2)n1 (stereo not drawn) [Compound 495, N-(4-amino-3,4-dioxo-1-phenylbutan-2-yl)-3-methyl-1-(pyridin-2-yl)-1H-pyrazole-5-carboxamide] | – | – | – | – | < 3 | < 3 | 10 to 25 | < 10 |

The next lines start with the values.

| IC50 ([1]; Column A) [µM] | IC50 ([2]; Column B) [µM] | IC50 [3, 5] [µM] | IC50 ([4]; Column E) [µM] | IC50 [1] [µM] | IC50 [2] [µM] | IC50 [3, 6] [µM] | IC50 [4] [µM] | Structure (SMILES) |
| --- | --- | --- | --- | --- | --- | --- | --- | --- |
| < 3 | < 3 | < 10 | > 25 | – | – | – | – | Cn1cc(C(=O)N[C@@H](Cc2ccccc2)C(=O)C(N)=O)c(-c2ccccc2)n1 [Compound 32, (S)—N-(4-amino-3,4-dioxo-1-phenylbutan-2-yl)-1-methyl-3-phenyl-1H-pyrazole-4-carboxamide] |
| < 3 | < 3 | 10 to 25 | > 25 | – | – | – | – | NC(=O)C(=O)[C@H](Cc1ccccc1)NC(=O)c1snnc1-c1ccccc1 [Compound 44, (S)—N-(4-amino-3,4-dioxo-1-phenylbutan-2-yl)-4-phenyl-1,2,3-thiadiazole-5-carboxamide] |
| < 3 | < 3 | < 10 | < 10 | – | – | – | – | NC(=O)C(=O)[C@H](Cc1ccccc1)NC(=O)c1nsnc1-c1ccccc1 [Compound 72, (S)—N-(4-amino-3,4-dioxo-1-phenylbutan-2-yl)-4-phenyl-1,2,5-thiadiazole-3-carboxamide] |
| < 3 | < 3 | < 10 | > 25 | – | – | – | – | CCCC[C@H](NC(=O)c1oc(C)nc1-c1ccccc1)C(=O)C(N)=O [Compound 265, (S)—N-(1-amino-1,2-dioxoheptan-3-yl)-2-methyl-4-phenyloxazole-5-carboxamide] |
| – | – | – | – | < 3 | < 3 | < 10 | < 10 | Cc1nc(-c2ccccc2)c(C(=O)NC(Cc2ccccc2)C(=O)C(N)=O)o1 (stereo not drawn) [Compound 357, N-(4-amino-3,4-dioxo-1-phenylbutan-2-yl)-2-methyl-4-phenyloxazole-5-carboxamide] |
| – | – | – | – | < 3 | < 3 | < 10 | < 10 | Cc1nc(-c2cccc(F)c2)c(C(=O)NC(Cc2ccccc2)C(=O)C(N)=O)o1 (stereo not drawn) [Compound 404, N-(4-amino-3,4-dioxo-1-phenylbutan-2-yl)-4-(3-fluorophenyl)-2-methyloxazole-5-carboxamide] |
| – | – | – | – | < 3 | < 3 | – | – | Cc1nc(-c2ccccc2F)c(C(=O)NC(Cc2ccccc2)C(=O)C(N)=O)o1 (stereo not drawn) [Compound 405, N-(4-amino-3,4-dioxo-1-phenylbutan-2-yl)-4-(2-fluorophenyl)-2-methyloxazole-5-carboxamide] |
